Measurements as given in patent publication US20030053967A1, “Use of 3,4-dihydroxy-mandelic acid for protecting against oxidative damage caused by ultra-violet light” (priority 2000, published 2003).

Experiments:
[1] = accelerated autoxidation of lipids by air, Rancimat apparatus, squalene; settings: for AOI in squalene at 80° C. with 0.005% of test substance: squalene purified over alumina, stabilized with 1 ppm α-tocopherol, 0.005% test substance; for AOI, squalene, 80° C.: single substance, c 0.0025 % by wt.
Protocol: (§1) The test system used was the accelerated autoxidation of lipids by air with or without antioxidant using the Rancimat apparatus (Rancimat is a registered trademark of Metrohm AG, Herisau, Switzerland). […] In a control sample, only solvent was added. […] The conductivity of this aqueous solution was continuously measured and documented. The oxidation of (unsaturated) fats proceeds only very slowly for some time and then suddenly increases. The time to the increase is referred to as the induction period (IP). The following equation was used to calculate the antioxidative index (AOI): AOI=IP(with test solution/IP(control sample) The results for the experiment in squalene that has been purified over alumina grade N and stabilized with 1 ppm of α-tocopherol at 80° C. are shown in Table 3: The experiments were carried out as described under Example 2. […] The AOI values measured for the combinations were compared with the AOI values calculated according to the following formula: […]

[2] = accelerated autoxidation of lipids by air, Rancimat apparatus, soybean oil; settings: for AOI in soybean oil at 100° C. with 0.05% test substance: soybean oil purified over alumina, AOI = IP(test)/IP(control); for AOI, soybean oil, 100° C.: single substance, c 0.025 % by wt.
Protocol: as §1, with “soybean oil” for “squalene”, “N” for “N and stabilized with 1 ppm of α-tocopherol”, “100°” for “80°”, “2:” for “3:”

[3] = 1,1-diphenyl-2-picrylhydrazyl test (DPPH test) for the removal of free radicals; type: biochemical; settings: DPPH 100 μmol/l in methanol, absorption at 515 nm
Protocol: The activity of 3,4-dihydroxymandelic acid as free-radical scavenger was compared with that of conventional free-radical scavengers. For this purpose, the 1,1-diphenyl-2-picrylhydrazyl test (DPPH test) for the removal of free radicals was used.
1,1-Diphenyl-2-picrylhydrazyl (DPPH) was dissolved in methanol to a concentration of 100 μmol/l. A series of dilutions of 3,4-dihydroxymandelic acid, vitamin C, α-tocopherol and 2,6-di-tert-butyl-4-methylphenol were prepared in methanol. Methanol was used as the control. 2500 μl of the DPPH solution were mixed with 500 μl of each test solution and the decrease in absorption at 515 nm was read until the decrease was less than 2% per hour. The activity of the test substances as free-radical scavengers was calculated using the following equation:
Activity as free-radical scavenger (%)=100−(absorption of the test compounds)/(absorption of the control)×100.
The activity of the free-radical scavengers (%) in a series of dilutions of test compounds was used to calculate, for each test compound, the effective relative concentration EC50 (based on the starting concentration of DPPH, EC=c (test compound)/c(DPPH)) of a test compound at which 50% of the free radical DPPH had been removed.

[4] = tested on: ultraviolet light-induced sebum oxidation (squalene hydroperoxide, SQOOH); experiment: protective action against ultraviolet light-induced sebum oxidation on the skin of subjects; type: in vivo, human; settings: back skin of 12 subjects, UV 320 to 400 nm, 10 joules/cm^2; for c(H2O2)/c(SQ): 2 mg/cm^2 topical (acid: 200 mg in 200 ml 1,3-butylene glycol twice daily for 2 days; tocopherol: 0.2% ethanolic, once before irradiation); for % inhibition compared with the untreated area: squalene hydroperoxide, 2 mg/cm^2 topical
Protocol: 200 mg of 3,4-dihydroxymandelic acid were dissolved in 200 ml of 1,3-butylene glycol (solution A). In addition, a 0.2% strength ethanolic solution of tocopherol was prepared (solution B). A dose of 2 mg/cm^2 of solution A was applied twice daily to the skin on the back of 12 subjects for 2 days in each case. Prior to the following irradiation, solution B was applied to a control area (2 mg/cm^2). The 2 treated and one untreated sites were irradiated with ultraviolet light (320 to 400 nm, 10 joules/cm^2). The test areas in each case were treated with 4 ml of ethanol for 2 min, the solutions were dried under nitrogen at room temperature and the residue was taken up in 1 ml of ethanol. The latter solutions were investigated by HPLC for their content of squalene (detection at 210 nm against standard) or squalene hydroperoxide (SQOOH, determination of the peroxide content using cytochrome C/luminol-enhanced chemiluminescence). The content of squalene peroxide was given relative to squalene in the form of picomols peroxide per fig of squalene.
The inhibition based on the untreated area was calculated using the following equation:
% inhibition=100·(cSQOOH untreated−cSQOOH, treated)/CSQOOH, untreated

Row | EC50 (effective relative concentration at which 50% of the free radical DPPH had been removed, c(test compound)/c(DPPH)) [3] [mol/mol] | Compound | AOI in squalene at 80° C. with 0.005% of test substance [1] | AOI in soybean oil at 100° C. with 0.05% test substance [2] | c(H2O2)/c(SQ) [4] [pmol/µg] | % inhibition compared with the untreated area [4] [%] | AOI, squalene, 80° C. [1] | AOI, soybean oil, 100° C. [2]
1 | 0.240 | Cc1cc(C(C)(C)C)c(O)c(C(C)(C)C)c1 [2,6-Di-tert-butyl-4-methylphenol] | 38 | 4.8 | – | – | – | –
2 | 0.270 | O=C1O[C@H]([C@@H](O)CO)C(O)=C1O [Vitamin C] | 0.7 | 1.2 | – | – | – | –
3 | 0.062 | O=C(O)C(O)c1ccc(O)c(O)c1 (centres unmarked) [3,4-Dihydroxymandelic acid, 2-(3,4-dihydroxyphenyl)-2-hydroxyacetic acid] | 34 | 9.5 | 618 ± 45 | 33 ± 7 | 15 | 5.4
4 | 0.250 | Cc1c(C)c2c(c(C)c1O)CC[C@@](C)(CCC[C@H](C)CCC[C@H](C)CCCC(C)C)O2 [α-Tocopherol] | 39 | 5.1 | 664 ± 19 | 28 ± 6 | 23 | 4.7
